{
  "source": "patent US10335364B2",
  "about": "“Composition for topical application comprising glycerol and tannins” (priority 2013, dated 2019)",
  "key": {"[1]": {"system": "human multilayered epidermis", "assay": "Glycerol film retention on in vitro human multilayered epidermis (MTT cell viability)", "assay_type": "cell-based", "method": "In the absence of any specific in vivo model to study the duration of the film retention by a biological surface, an in vitro model of human multilayered epidermis was used to evaluate the effects of the addition of non-cytotoxic concentrations of different PCD-rich plant extracts, either singly or in different associations, on glycerol film retention. Human epidermis was grown on a permeable polycarbonate filter (1 cm diameter) and was kept on a sponge soaked with culture medium, its outer surface remaining in contact with air, as is the case in vivo. Through capillary action, the culture medium diffuses through the polycarbonate filter and supplies nourishment to the epidermal cells to keep those cells alive.\nInserting one or two additional polycarbonate filters increases the distance between the culture medium and the cells; the amount of available medium, which reaches the cells, then decreases, and in absence of nutrients and hydration, the cells die. […] The percentage of live cells is proportional to the duration of retention of the glycerol film by the epidermal surface.\nVarious glycerol preparations containing test products (mainly PCD-rich plant extracts), at concentrations varying between 0.1 and 5.0%.\nQuantity of Test Product Applied Per Epidermis: 20 μl\nGlycerol preparations were directly applied on the epidermis as thin layer with the help of a pipette (n=6 per concentration): the epidermis was placed on two filters and the test product was applied on the epidermis surface. The filters were kept on a sponge, which was inserted in a petri dish containing an appropriate quantity of medium to nourish the cells. […]\nThe cell viability was scored as follows: • Score 4: 100% cells (compared to the controls) with intense blue color. • 3: Approximately 75% live cells with dark blue color. • 2: Approximately 50% live cells with medium blue color. • 1: Approximately 25% live cells with light blue color. • 0: No live cells, whitish epidermis color. […]"}, "diabetic ulcers": {"system": "diabetic ulcers", "conditions": "human, in vivo", "description": "Samples of wound fluid (100 μl) were collected at hourly intervals over a 6 h period, and the quantity of glycerol was measured."}, "[2]": {"system": "human epidermis (normal human epithelial cells)", "assay": "In vitro osmotic/hydrating properties on dehydrated human epidermis culture", "assay_type": "cell-based", "conditions": "20 μl, day 7, filmogen glycerol = preparation n° 2 in Example 5 (Orosol)", "source_text": "In the absence of in vivo models to mimic the osmotic exudation of hypotonic liquid from the oral or vaginal mucosa, a cell culture model of human epidermis was used which contains normal human epithelial cells grown on a polycarbonate filter in an air/liquid phase. Under optimal conditions, a multilayered cell culture, equivalent to the mucosal surface is obtained on a polycarbonate support. This support is placed on a sponge in contact with a defined amount of culture medium. The medium diffuses into the sponge and the filter, and supplies nutrients as well as hydration to the cells. Under these conditions, the cell culture can be kept alive for at least a week.\nTo create an experimental model of mucosa dryness, we inserted one or two extra filters between the cells and the sponge, thereby reducing the amount of liquid medium available to the cells. In absence of hydration, cells die, and the cell mortality can be measured with a vital dye MU. Cell mortality is proportional to the culture surface's dryness. […]\nThe aim of this study was to evaluate the hydrating properties of filmogen glycerol compared to regular glycerol. […] Each epidermis was washed by stirring the culture in culture medium for 20 seconds on days 1, 3 and 5, and cell viability was measured on day 7 using MU staining."}, "rat dorsal skin lesions": {"system": "rat dorsal skin lesions", "assay": "In vivo rat wound healing", "conditions": "0.2 ml per lesion for 7 consecutive days, filmogen glycerol as per the example N° 6", "description": "The rat dorsal skin was shaved and 3 circular lesions, […] in diameter and depth, were made to the hypodermis with a dermatome. 0.2 ml of each test product was applied on each lesion for 7 consecutive days. Lesion diameter was measured every day and mean values were compared."}, "[3]": {"system": "free virus particles present on the surface of labial herpes lesions", "assay": "Clinical study 3: free virus particles on labial herpes lesions (Tzank test)", "assay_type": "in vivo, human (patients)", "conditions": "labial lesion smears, twice daily application", "description": "Labial lesion smears were collected and mean virus concentration was measured by quantifying the number of multinucleated virus-infected giant cells in each lesion using Tzank test, and the mean amount of free virus particles was determined in both groups."}, "[4]": {"system": "nasal sinus infection (rhinosinusitis)", "assay": "Clinical study 4: rhinosinusitis", "assay_type": "in vivo, human (patients)", "description": "A 21-day controlled clinical trial of G-PCD compared to glycerol alone in patients suffering from acute symptoms of nasal sinus infection was performed.\nThe aim of this study was to evaluate the sinus-opening efficacy of G-PCD solution (32% glycerol, 1% plant PCDs in water) as per the example N° 5, compared to glycerol alone (32% glycerol in water). Among 127 patients suffering from acute and chronic sinusitis 109 were selected for the study. 58 patients were treated with G-PCD and 51 with glycerol. Products were administered as sprays (3 at each treatment application), 2-3 times per day for a maximum period of 21 days.\nThe parameters studied were: 1. Effect on nasal congestion and runny nose; 2. Effect on pain upon pressure around the nasal sinus surface; 3. Overall condition of the patient with respect to sinus infection; and 4. The influence on antibiotic therapy. […] Only 21% patients in the G-PCD group required antibiotic therapy for an average 7.41 days compared to 40% in the glycerol group for a period of 10.5 days (FIG. 8)"}, "[5]": {"assay": "Osmolality and osmotic pressure of glycerol and seawater", "assay_type": "physicochemical", "conditions": "pure glycerol", "source_text": "An injured skin or mucosa acts as a semi-permeable membrane and allows osmosis to occur. The flow of solvents across a semi-permeable membrane constitutes the osmotic flow or osmosis. The pressure required to achieve osmotic equilibrium is known as osmotic pressure. The higher the concentration of a […], the more osmotic pressure it exerts. Fresh water is considered isotonic with a density of 1000 kg/m^3. […] Osmotic pressure exerted by glycerol is nearly 10 times higher compared to seawater. The solute concentration of glycerol is also much higher compared to seawater. It is the total solute concentration in a solution that determines the osmotic flow of liquid, as osmosis is driven by differences in solute/solvent concentrations that exist across a semi-permeable membrane. The total solute concentration can be determined through the osmolality of the solution. […] Therefore, glycerol could have been a product of choice for application on infected surfaces in order to generate osmotic outflow of hypotonic liquid and to clean the injury. Unfortunately, the exudating hypotonic liquid immediately dilutes the glycerol and drains it from the wound surface within a few minutes, limiting these cleaning effects."}, "[6]": {"conditions": "seawater containing […] NaCl; pure glycerol; cited from earlier work"}, "[7]": {"conditions": "spray 2-3 times per day, glycerol = 32% glycerol in water"}},
  "data": [
    {"smiles": "OCC(O)CO", "note": "[glycerol]", "values": [
      {"measurement": "cell survival % after 72 h", "setting": "[1]; 20 μl on epidermis placed on two filters, 37° C., 5% CO2, 72 h, MTT", "value": "23.85 (±4.8) %"},
      {"measurement": "higher cell survival compared to the positive controls", "setting": "[1]; 72 h, positive controls without product 6.32%", "value": 17.53, "unit": "%"},
      {"measurement": "cells die within 72 h", "setting": "[1]; glycerol control, free of any PCD extract", "value": "60-70%"},
      {"measurement": "glycerol eliminated from the wound within 1 hour", "setting": "diabetic ulcers; 1 h", "value": "~92", "unit": "%"},
      {"measurement": "glycerol eliminated from the wound within 2 hours", "setting": "diabetic ulcers; 2 h", "value": 100, "unit": "%"},
      {"measurement": "Mean score of cell survival after 1-week culture, partially dehydrated cultures", "setting": "[2]; 1 extra filter", "value": 62.3, "unit": "%"},
      {"measurement": "Mean score of cell survival after 1-week culture, severely dehydrated cultures", "setting": "[2]; 2 extra filters", "value": 43.15, "unit": "%"},
      {"measurement": "Mean lesion size (diameter/day/lesion during 7 days)", "setting": "rat dorsal skin lesions", "value": 2.95, "unit": "cm^2"},
      {"measurement": "mean amount of free virus particles, day 1", "setting": "[3]", "value": "> 750"},
      {"measurement": "mean amount of free virus particles, day 4", "setting": "[3]", "value": "635 (±17.51)"},
      {"measurement": "mean amount of free virus particles, day 7", "setting": "[3]", "value": "542 (±22.35.)"},
      {"measurement": "mean amount of free virus particles, day 14", "setting": "[3]", "value": "522 (±13.50)"},
      {"measurement": "patients requiring antibiotic therapy", "setting": "[4]; 21-day trial", "value": 40, "unit": "%"},
      {"measurement": "average duration of antibiotic therapy", "setting": "[4]; patients who required antibiotics", "value": 10.5, "unit": "days"},
      {"measurement": "nasal congestion symptom change after 30 minutes", "setting": "[4]; [7]", "value": "−20.40", "unit": "%"},
      {"measurement": "nasal congestion symptom change after 3 days", "setting": "[4]; [7]", "value": "−19.09", "unit": "%"},
      {"measurement": "nasal congestion symptom change after 7 days", "setting": "[4]; [7]", "value": "−30.25", "unit": "%"},
      {"measurement": "overall rhinosinusitis condition change after 30 minutes", "setting": "[4]; [7]", "value": "−22.56", "unit": "%"},
      {"measurement": "overall rhinosinusitis condition change after 3 days", "setting": "[4]; [7]", "value": "+3.52%"},
      {"measurement": "overall rhinosinusitis condition change after 7 days", "setting": "[4]; [7]", "value": "−17.62", "unit": "%"},
      {"measurement": "sinus pain symptom change after 30 minutes", "setting": "[4]; [7]", "value": "−1.69", "unit": "%"},
      {"measurement": "sinus pain symptom change after 3 days", "setting": "[4]; [7]", "value": "−8.36", "unit": "%"},
      {"measurement": "sinus pain symptom change after 7 days", "setting": "[4]; [7]", "value": "−53.36", "unit": "%"},
      {"measurement": "increase in intensity of runny nose", "setting": "[4]; within 30 minutes of first product administration", "value": 31.71, "unit": "%"},
      {"measurement": "osmotic activity compared to seawater", "setting": "[5]", "value": "~18", "unit": "times"},
      {"measurement": "osmolality (total solute/mol wt/kg)", "setting": "[6]", "value": 10.86, "unit": "mols/kg"}
    ]}
  ]
}
